In patent US20240262835A1, “PRMT5 INHIBITING COMPOUNDS AND USES THEREOF” (ANTENGENE DISCOVERY LIMITED, priority 2023, published 2024):

Tests used:
in vitro [1] = details: dog, hepatocytes
Experimental: 1) 10 mM test compounds were provided.
(§1) 2) 30 mM positive control stock solutions: Dissolved accurate amount of positive control compounds in dimethyl sulfoxide (DMSO).
(§2) 3) 1000× Stock Solution: Diluted 10 mM test compounds and 30 mM positive control compounds to 1 mM and 3 mM with DMSO in 96-well plates.
(§3) 4) 100× Dosing Solution: Diluted 1 mM test compounds and 3 mM positive control compounds to 100 μM and 300 μM dosing solutions with ACN.
(§4) 5) Preparation of 0.5×10^6/mL cells suspension: cryopreserved cells were thawed, isolated and suspended in Incubation Medium, then diluted with pre-warmed Incubation Medium to 0.5×10^6 cells/mL.
(§5) 6) Add 198 μL of pre-warmed cell suspensions in 96-well plates.
(§6) 7) Preparation of Quenching Plate: Transfer 125 μL of stop solution in a set of pre-labeled 96-well plates.
(§7) 8) Spike 2 μL dosing solution to each well of 96-well plates in duplicate.
(§8) 9) For TO Samples, mix to achieve a homogenous suspension for about 1 min, then immediately transfer 25 μL of each sample into well containing 125 μL of ice-cold stop solution followed by mixing.
(§9) 10) Incubate all plates at 37° C. in a 95% humidified incubator at 5% CO2 to start the reactions with constant shaking.
(§10) 11) At 15, 30, 60 and 90 min, mix samples and then transfer 25 μL of each sample at each time point to well containing 125 μL of ice-cold stop solution followed by mixing.
(§11) 12) Medium Control (MC) sample plates (labeled as TO-MC and T90-MC) are prepared in the same way as cell incubation except that medium was used instead of cell suspension.
(§12) 13) At each corresponding time point, stop the reactions by removing the plates from incubator and mixing with 125 μL of ice-cold stop solution.
(§13) 14) Vortex the plates immediately on a plate shaker at 600 rpm for 10 minutes. Then, centrifuge all sample plates at 3220×g for 20 min at 4° C.
(§14) 15) After centrifugation, 80 μL/well of supernatant in the sample plates are transferred to another set of pre-labeled 96-well plates which containing 240 μL of ultra pure water according to the plate map.
(§15) 16) Analytical plates are sealed and store at 4° C. until LC-MS/MS analysis.
(§16) The remaining percents of test articles after incubation were calculated by the follow equations:
(§17) Use the following equation of first order kinetics to calculate T1/2 and CLint:

[2] = system: cryopreserved hepatocytes; details: mouse
Experimental: 1) 10 mM test compounds were provided.
as §1, §2, §3, §4, §5, §6, §7, §8, §9, §10, §11, §12, §13, §14, §15, §16, §17

[3] = system: cryopreserved hepatocytes; details: dog
Experimental: 1) 10 mM test compounds were provided.
as §1, §2, §3, §4, §5, §6, §7, §8, §9, §10, §11, §12, §13, §14, §15, §16, §17

in vitro [4] = details: rat, hepatocytes
[5] = system: cryopreserved hepatocytes; details: rat
in vitro [6] = details: cynomolgus monkey, hepatocytes
[7] = system: cryopreserved hepatocytes; details: cynomolgus monkey
in vitro [8] = details: mouse, hepatocytes
Experimental: 1) 10 mM test compounds were provided.
as §1, §2, §3, §4, §5, §6, §7, §8, §9, §10, §11, §12, §13, §14, §15, §16, §17

[9] = system: cryopreserved hepatocytes; details: human
Experimental: 1) 10 mM test compounds were provided.
as §1, §2, §3, §4, §5, §6, §7, §8, §9, §10, §11, §12, §13, §14, §15, §16, §17

in vitro [10] = details: human, hepatocytes
Experimental: 1) 10 mM test compounds were provided.
as §1, §2, §3, §4, §5, §6, §7, §8, §9, §10, §11, §12, §13, §14, §15, §16, §17

[11] = rat liver microsome, scaled to liver
in vitro [12] = details: rat, microsomes
[13] = Liver microsome metabolic stability (LMS) assay, human
[14] = Liver microsome metabolic stability (LMS) assay, dog; details: dog, microsomes
[15] = Liver microsome metabolic stability (LMS) assay, cynomolgus monkey

In the case of CCOc1ccc2ccc(=O)oc2c1 [Ref. 1, 7-Ethoxycoumarin], the CLint scaled at 3 μM (in vitro [1]) is reported as 3580 mL/min/kg, the “CLint (hep) M” value [2] is reported as 647.9 μL/min/10^6 and the “CLint (hep) D” value [3] is reported as 521.1 μL/min/10^6. For the same compound, the CLint scaled at 3 μM (in vitro [4]) was 184 mL/min/kg, the half-life at 3 μM (in vitro [4]) was 35.3 min and the “CLint (hep) R” value [5] was 39.2 μL/min/10^6. For the same compound, the CLint scaled at 3 μM (in vitro [6]) was 554 mL/min/kg, the half-life at 3 μM (in vitro [6]) was 9 min and the “CLint (hep) C” value [7] was 154.0 μL/min/10^6. The CLint scaled at 3 μM (in vitro [8]) was 7700 mL/min/kg, the half-life at 3 μM (in vitro [8]) was 2.1 min and the “CLint (hep) H” value [9] was 72.1 μL/min/10^6. For the same compound, the CLint scaled at 3 μM (in vitro [10]) was 201 mL/min/kg and the half-life at 3 μM (in vitro [10]) was 19.2 min.
In the case of C[C@]12CC[C@H]3[C@@H](CCC4=CC(=O)CC[C@@]43C)[C@@H]1CC[C@@H]2O [Ref. 4, Testosterone, reference compound], the “CLint (liver) R” value [11] is reported as 3782.4 mL/min/kg, the half-life (in vitro [12]) is reported as 0.7 min and the “CLint (mic) H” value ([13]; human liver microsome) is reported as 79.0 µL/min/mg. The half-life at 1 μM ([13]; human, microsomes) was 17.6 min, the CLint scaled at 1 μM [14] was 58.7 mL/min/kg and the half-life at 1 μM [14] was 34 min. For the same compound, the microsomal CLint at 1 μM [14] was 40.8 µL/min/mg, the “CLint (mic) C” value ([15]; cynomolgus monkey liver microsome) was 152.3 µL/min/mg and the CLint scaled at 1 μM ([15]; cynomolgus monkey, microsomes) was 206 mL/min/kg. The half-life at 1 μM ([15]; cynomolgus monkey, microsomes) was 9.1 min.
